The compounds below were run against GST tagged truncated human mutant G2019S LRRK2 (Homo sapiens (Human), UniProt Q5S007, G2019S) (assay: LRRK2 Km ATP LanthaScreen Assay). Details: 134 μM ATP (Km ATP), LRRKtide substrate, negative log of mean IC50 (molar).
Type: biochemical
Outline: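 Truncated GST-tagged G2019S LRRK2 (1.25 nM enzyme solution) was preincubated with compound for 15 min at rt, then reacted for 90 min with fluorescein-LRRKtide and 134 μM ATP (Km) in Tris pH 8.5/MgCl2 buffer. After an EDTA stop, TR-FRET used a Tb anti-pERM antibody (520/495 nm ratio). IC50 came from a 4-parameter fit and is reported as pIC50, mean of several runs.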

GST tagged truncated human mutant G2019S LRRK2, sequence (Q5S007 970-2527 G2019S): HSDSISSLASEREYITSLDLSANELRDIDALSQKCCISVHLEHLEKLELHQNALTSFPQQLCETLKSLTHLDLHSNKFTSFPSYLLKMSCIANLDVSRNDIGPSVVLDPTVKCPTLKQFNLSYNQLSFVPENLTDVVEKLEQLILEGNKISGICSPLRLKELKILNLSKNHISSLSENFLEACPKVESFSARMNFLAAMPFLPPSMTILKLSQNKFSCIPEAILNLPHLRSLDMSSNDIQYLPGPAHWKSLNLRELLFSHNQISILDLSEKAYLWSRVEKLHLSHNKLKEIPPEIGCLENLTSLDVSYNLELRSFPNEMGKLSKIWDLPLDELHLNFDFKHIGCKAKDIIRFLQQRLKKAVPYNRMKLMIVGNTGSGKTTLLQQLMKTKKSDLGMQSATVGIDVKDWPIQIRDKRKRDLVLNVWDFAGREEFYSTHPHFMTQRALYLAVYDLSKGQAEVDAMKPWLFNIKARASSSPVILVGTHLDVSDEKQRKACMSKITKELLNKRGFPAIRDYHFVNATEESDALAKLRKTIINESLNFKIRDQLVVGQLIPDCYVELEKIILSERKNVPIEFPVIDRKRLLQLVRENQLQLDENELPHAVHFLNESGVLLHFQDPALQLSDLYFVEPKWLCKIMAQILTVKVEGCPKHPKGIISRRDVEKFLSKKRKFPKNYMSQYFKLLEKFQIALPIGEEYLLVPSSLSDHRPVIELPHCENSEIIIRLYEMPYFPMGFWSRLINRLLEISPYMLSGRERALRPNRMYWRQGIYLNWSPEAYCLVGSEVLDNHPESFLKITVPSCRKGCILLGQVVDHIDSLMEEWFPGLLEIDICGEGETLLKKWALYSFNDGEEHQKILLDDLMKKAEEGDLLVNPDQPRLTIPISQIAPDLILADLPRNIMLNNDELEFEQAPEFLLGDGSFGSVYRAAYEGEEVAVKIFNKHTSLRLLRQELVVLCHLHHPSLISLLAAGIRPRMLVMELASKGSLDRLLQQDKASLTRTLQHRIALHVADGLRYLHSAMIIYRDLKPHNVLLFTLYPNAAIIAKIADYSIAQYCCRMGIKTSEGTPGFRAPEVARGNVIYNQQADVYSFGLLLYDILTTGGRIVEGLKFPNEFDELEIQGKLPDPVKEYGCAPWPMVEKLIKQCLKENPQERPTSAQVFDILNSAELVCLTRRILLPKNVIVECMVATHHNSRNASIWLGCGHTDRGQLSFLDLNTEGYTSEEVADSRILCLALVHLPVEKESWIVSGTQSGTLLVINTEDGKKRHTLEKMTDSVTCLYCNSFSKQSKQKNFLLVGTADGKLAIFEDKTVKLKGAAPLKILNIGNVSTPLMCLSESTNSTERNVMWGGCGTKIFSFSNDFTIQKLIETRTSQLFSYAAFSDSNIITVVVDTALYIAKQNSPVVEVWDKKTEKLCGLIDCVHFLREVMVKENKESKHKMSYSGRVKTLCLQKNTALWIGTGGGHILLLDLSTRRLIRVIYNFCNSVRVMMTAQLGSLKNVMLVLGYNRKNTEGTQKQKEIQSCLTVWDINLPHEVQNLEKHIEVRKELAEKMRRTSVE

SMILES | LRRK2 pIC50
O=C(Nc1cnn(CC2CCC2)c1)c1cccc(-c2cnn(Cc3cccnc3)c2)n1 [Example 9-36, N-[1-(cyclobutylmethyl)-1H-pyrazol-4-yl]-6-[1-(pyridin-3-ylmethyl)-1H-pyrazol-4-yl]pyridine-2-carboxamide] | 6.90
CCn1cc(NC(=O)c2csc(-c3cn[nH]c3)n2)c(-c2nnc3n2CCCC3)n1 [Example 1-12, N-[1-ethyl-3-(5,6,7,8-tetrahydro[1,2,4]triazolo[4,3-a]pyridin-3-yl)-1H-pyrazol-4-yl]-2-(1H-pyrazol-4-yl)-1,3-thiazole-4-carboxamide] | 7.53
O=C(Nc1cnn(C2CCC2)c1)c1cccc(-n2cccn2)n1 [Example 4-13, N-(1-cyclobutyl-1H-pyrazol-4-yl)-6-(1H-pyrazol-1-yl)pyridine-2-carboxamide] | 6.76
Cc1[nH]ncc1-c1nc(C(=O)Nc2cnn(C3CCC3)c2)cs1 [Example 9-18, N-(1-cyclobutyl-1H-pyrazol-4-yl)-2-(5-methyl-1H-pyrazol-4-yl)-1,3-thiazole-4-carboxamide] | 7.59
O=C(Nc1cnn(C2CCC2)c1C1CC1)c1csc(-c2cn[nH]c2)n1 [Example 3-3, N-(1-cyclobutyl-5-cyclopropyl-1H-pyrazol-4-yl)-2-(1H-pyrazol-4-yl)-1,3-thiazole-4-carboxamide] | 7.16
O=C(Nc1cnn(CCN2CCNCC2)c1)c1csc(-c2cn[nH]c2)n1 [Example 7-15, N-{1-[2-(piperazin-1-yl)ethyl]-1H-pyrazol-4-yl}-2-(1H-pyrazol-4-yl)-1,3-thiazole-4-carboxamide] | 6.36
CC(C1CC1)n1ncc(NC(=O)c2csc(-c3cn[nH]c3)n2)c1C(F)F (single isomer, unassigned) [Example 3-4, (R)- or (S)—N-(1-(1-cyclopropylethyl)-5-(difluoromethyl)-1H-pyrazol-4-yl)-2-(1H-pyrazol-4-yl)thiazole-4-carboxamide] | 5.69
O=C(Nc1cnn(C2CCC2)c1)c1cccc(-n2ccnc2)n1 [Example 4-17, N-(1-cyclobutyl-1H-pyrazol-4-yl)-6-(1H-imidazol-1-yl)picolinamide] | 5.91
CC(C1CC1)n1ncc(NC(=O)c2csc(-c3cn[nH]c3)n2)c1C(F)F (single isomer, unassigned) [Example 3-5, (S)- or (R)—N-(1-(1-cyclopropylethyl)-5-(difluoromethyl)-1H-pyrazol-4-yl)-2-(1H-pyrazol-4-yl)thiazole-4-carboxamide] | 5.92
N[C@H]1CC[C@](F)(Cn2cc(NC(=O)c3csc(-c4cn[nH]c4)n3)cn2)CC1 [Example 7-35, N-{1-[(cis-4-amino-1-fluorocyclohexyl)methyl]-1H-pyrazol-4-yl}-2-(1H-pyrazol-4-yl)-1,3-thiazole-4-carboxamide] | 6.24
CS(=O)(=O)CC1(Cn2cc(NC(=O)c3csc(-c4cn[nH]c4)n3)cn2)CCC1 [Example 1-44, N-[1-({1-[(methylsulfonyl)methyl]cyclobutyl}methyl)-1H-pyrazol-4-yl]-2-(1H-pyrazol-4-yl)-1,3-thiazole-4-carboxamide] | 7.91
O=C(Nc1cnn(C2CCC2)c1)c1csc(-c2cn[nH]c2)n1 [Example 1-1, N-(1-Cyclobutyl-1H-pyrazol-4-yl)-2-(1H-pyrazol-4-yl)thiazole-4-carboxamide] | 8.01
O=C(Nc1cn(CCF)nc1C(F)F)c1csc(-c2cn[nH]c2)n1 [Example 7-9, N-[3-(difluoromethyl)-1-(2-fluoroethyl)-1H-pyrazol-4-yl]-2-(1H-pyrazol-4-yl)-1,3-thiazole-4-carboxamide] | 7.75
O=C(Nc1cnn(Cc2ccc(F)cc2)c1)c1csc(-c2cn[nH]c2)n1 [Example 7-17, N-[1-(4-fluorobenzyl)-1H-pyrazol-4-yl]-2-(1H-pyrazol-4-yl)-1,3-thiazole-4-carboxamide] | 7.76

Same assay, conditions: 134 μM ATP (Km ATP), LRRKtide substrate, negative log of mean IC50 (molar), read-out: LRRK2 pIC50 (converted)

SMILES | IC50
O=C(Nc1cnn(C2CCC2)c1)c1csc(-n2cccn2)n1 [Example 11-1, N-(1-Cyclobutyl-1H-pyrazol-4-yl)-2-(1H-pyrazol-1-yl)thiazole-4-carboxamide] | 100 nM

Source: US20240174679A1, “HETEROAROYL AMIDES AS LRRK2 INHIBITORS, PHARMACEUTICAL COMPOSITIONS, AND USES THEREOF” (MERCK SHARP & DOHME LLC, priority 2021, published 2024)
